The target of the experiment is mouse NPY Y5 receptor (Mus musculus (Mouse), UniProt O70342). The experiment in a line: Affinity for NPY Y5 receptor (Test Example 1-1), 125I peptide YY binding. Conditions: inhibition of 125I peptide YY binding to membranes of CHO cells expressing mouse NPY Y5 receptor. The source says: cDNA sequence encoding mouse NPY Y5 receptor (Biochem. Biophys. Acta 1328: 83-89, 1997) was cloned in the expression vector (pME18S, Takebe et al. Mol. Cell. Biol. 8, 466-472). The obtained expression vector was transfected into CHO cells as a host according to the instruction manual using Lipofectamine reagent (Trademark, Gibco BRL Co., Ltd.). The cells that stably express NPY Y5 receptor were obtained.
Sequence of mouse NPY Y5 receptor (O70342 whole entry): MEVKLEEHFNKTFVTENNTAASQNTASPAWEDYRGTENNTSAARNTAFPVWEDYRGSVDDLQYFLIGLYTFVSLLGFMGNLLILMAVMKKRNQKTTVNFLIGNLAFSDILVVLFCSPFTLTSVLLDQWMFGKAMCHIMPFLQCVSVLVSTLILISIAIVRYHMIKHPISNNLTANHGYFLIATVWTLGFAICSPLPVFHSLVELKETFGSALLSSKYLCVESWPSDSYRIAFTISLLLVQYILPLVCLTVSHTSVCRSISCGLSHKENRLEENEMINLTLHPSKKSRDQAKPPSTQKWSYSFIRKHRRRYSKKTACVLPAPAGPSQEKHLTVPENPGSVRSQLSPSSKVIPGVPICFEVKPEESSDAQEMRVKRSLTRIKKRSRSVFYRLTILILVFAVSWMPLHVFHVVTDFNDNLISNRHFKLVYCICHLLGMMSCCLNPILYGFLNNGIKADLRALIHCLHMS
The membrane samples prepared from the CHO cells expressing NPY Y5 receptor, the compound of the invention and 30,000 cpm ^125I peptide YY (60 pM of final concentration: Amersham) were incubated in the assay buffer (20 mM HEPES-Hanks buffer containing 0.1% bovine serum albumin, pH 7.4) at 25° C. for 2 hours. The membrane samples were then filtered from the mixture through a glassfilter (GF/C) presoaked with 1% polyethyleneimine. After washing with 50 mM Tris-HCl buffer (pH 7.4), radioactivity retained on the filters was determined using gamma counter. Non-specific binding was determined in the presence of 200 nM of peptide YY and the 50% inhibitory concentration (IC50 value) of the test compound for specific peptide YY binding was calculated (Inui, A. et al. Endocrinology 131, 2090-2096 (1992)).
For the compound `O=C(N[C@H]1CC[C@@H](C(=O)Nc2ccn(-c3ccccc3F)n2)CC1)c1cccc(F)n1` [Ia-2], the IC50 amounted to 1.6 nM.
Turning to `O=C(N[C@H]1CC[C@@H](C(=O)Nc2ccn(-c3ccccc3F)n2)CC1)c1cccc(Cl)n1` [Ia-4], the IC50 was 3.8 nM.
`O=C(N[C@H]1CC[C@@H](C(=O)Nc2cccc(-c3ccccc3F)c2)CC1)c1ccccc1` [Ia-14]: the IC50 amounted to 4.1 nM.
In turn, `CC(C)n1c(=O)oc2cc(NC(=O)[C@H]3CC[C@@H](NC(=O)c4ccccc4)CC3)ccc21` [Ia-15] showed an IC50 of 4.5 nM.
The result for `N#Cc1ccccc1C(=O)N[C@H]1CC[C@@H](C(=O)Nc2ccn(-c3ccccc3F)n2)CC1` [Ia-24] reads 2.9 nM; that for `O=C(N[C@H]1CC[C@@H](C(=O)Nc2cccc(-c3ccccc3F)c2)CC1)c1ccon1` [Ia-28], 4.1 nM.
In the case of `O=C(N[C@H]1CC[C@@H](C(=O)Nc2ccc(-c3ccccc3F)cc2)CC1)c1ccon1` [Ia-30] it was 0.71 nM; in that of `CC(C)n1c(=O)oc2cc(NC(=O)[C@H]3CC[C@@H](NC(=O)c4ccon4)CC3)ccc21` [Ia-32], 3.3 nM; in that of `O=C(N[C@H]1CC[C@@H](C(=O)Nc2ccc(-c3ccccc3)cc2)CC1)c1ccon1` [Ia-35], 0.65 nM.
`O=C(N[C@H]1CC[C@@H](c2nc(-c3ccc(Cl)c(Cl)c3)c[nH]2)CC1)c1ccon1` [Ia-40] returned an IC50 of 0.26 nM.
The result for `O=C(N[C@H]1CC[C@@H](c2nc(-c3cccc(Cl)c3)c[nH]2)CC1)c1ccon1` [Ia-42] reads 3 nM; that for `O=C(N[C@H]1CC[C@@H](c2nc(-c3cccc(C(F)(F)F)c3)c[nH]2)CC1)c1ccon1` [Ia-43], 1.8 nM.
The result for `O=C(Nc1ccn(-c2ccccc2F)n1)[C@H]1CC[C@@H](Nc2cccc(F)n2)CC1` [Ib-1] reads 2.9 nM; that for `CC(C)n1c(=O)oc2cc(NC(=O)[C@H]3CC[C@@H](Nc4cccc(F)n4)CC3)ccc21` [Ib-4], 1.5 nM; that for `C[C@@H]1CN(c2ccc(NC(=O)[C@H]3CC[C@@H](Oc4cc(Cl)ccn4)CC3)cc2)C[C@H](C)O1` [Ic-5], 1.5 nM.
In turn, `N#Cc1ccccc1O[C@H]1CC[C@@H](C(=O)Nc2ccc(OC(F)F)cc2)CC1` [Ic-8] showed an IC50 of 2.3 nM.
Regarding `C[C@@H]1CN(c2ccc(NC(=O)[C@H]3CC[C@@H](Oc4cc(C(F)(F)F)ccc4C#N)CC3)cc2)C[C@H](C)O1` [Ic-11], the IC50 came to 1.8 nM.
`C[C@@H]1CN(c2ccc(NC(=O)[C@H]3CC[C@@H](Oc4cc(Cl)ccc4C#N)CC3)cc2)C[C@H](C)O1` [Ic-12] returned a half-inhibitory concentration (IC50) of 1.1 nM.
Compound `CC(C)n1c(=O)oc2cc(NC(=O)[C@H]3CC[C@@H](Oc4cc(Cl)ccc4C#N)CC3)ccc21` [Ic-13] showed an IC50 of 0.56 nM.
As for `CC(C)n1c(=O)oc2cc(NC(=O)[C@H]3CC[C@@H](Oc4cc(C(F)(F)F)ccc4C#N)CC3)ccc21` [Ic-14], the IC50 is 0.68 nM.
The result for `CC(C)n1c(=O)oc2cc(NC(=O)[C@H]3CC[C@@H](Oc4cc(C(F)(F)F)ccn4)CC3)ccc21` [Ic-16] reads 0.41 nM; that for `O=C(Nc1ccn(-c2ccccc2F)n1)[C@H]1CC[C@@H](Oc2cc(Cl)ccn2)CC1` [Ic-17], 0.69 nM.
`O=C(Nc1ccn(-c2ccccc2F)n1)[C@H]1CC[C@@H](N2c3ccccc3OS2(=O)=O)CC1` [Id-8]: the IC50 was 0.58 nM.

The values above are taken from patent US8653125B2, “Cyclohexane derivative having NPY Y5 receptor antagonism” (Shionogi Co., Ltd., priority 2009, dated 2014).
